The text below walks through data of PMC8913318 (The Journal of Biological Chemistry, 2022).

Data set [1] has as its target T1, CYP168A1 (Pseudomonas aeruginosa, UniProt Q9I107).
T1 sequence (Q9I107 1-444): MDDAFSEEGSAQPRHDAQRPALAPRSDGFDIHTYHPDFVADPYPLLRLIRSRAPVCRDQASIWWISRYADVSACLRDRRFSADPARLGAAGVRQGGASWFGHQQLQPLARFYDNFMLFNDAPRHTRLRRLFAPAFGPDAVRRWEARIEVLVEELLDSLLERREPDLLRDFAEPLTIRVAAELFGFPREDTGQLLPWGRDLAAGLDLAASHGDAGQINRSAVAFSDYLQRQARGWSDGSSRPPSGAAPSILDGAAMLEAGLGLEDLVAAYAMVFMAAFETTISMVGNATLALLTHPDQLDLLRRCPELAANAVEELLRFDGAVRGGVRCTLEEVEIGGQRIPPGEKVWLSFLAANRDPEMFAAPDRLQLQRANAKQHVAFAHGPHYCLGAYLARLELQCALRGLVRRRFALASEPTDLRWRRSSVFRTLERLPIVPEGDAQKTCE
To be noted: 19-HETE formation; substrate inhibition model.

Data set [2] has as its target T1, CYP168A1. The data set can be described thus: biochemical. Particulars: Ki ± SE, substrate inhibition constant.
The subject of data set [3] is P. aeruginosa. Particulars: exposure of P. aeruginosa to arachidonic acid; cited from earlier work.
The target of data set [4] is T1, CYP168A1. The data set can be described thus: Ligand Kd determination by optical difference spectroscopy. Particulars: for Δ absorbance maxima: 1 μM CYP168A1. In kind it is binding.
The target in data set [5] is T1, CYP168A1. The data set can be described thus: Recombinant CYP168A1 lauric acid in vitro metabolic assays. In kind it is biochemical.
The mark [6] stands for this setting: ND = no spectral shift detected.
The mark [7] stands for this setting: lauric acid ω-1-hydroxylation, Hill fit (preferred model).

Molecules are shown by their SMILES. “Also recorded” adds a separate entry of the source. Like-named read-outs stand apart in the source and are kept apart here.

One may read the Kd as the constant that tells how readily two partners part at equilibrium. With `CCCCC/C=C\C/C=C\C/C=C\C/C=C\CCCC(=O)O` [Arachidonic acid], in data set [1], the “Vmax ± SE” value is 220 pmol/min/nmol P450. In addition, the Ki in data set [2] (18-HETE formation) worked out at 16000 ± 8000 nM; in data set [2] (19-HETE formation) it was 13000 ± 8000 nM. Also, in data set [3], the “increase in the minimum inhibitory concentration (MIC) for polymyxin B” value is “eightfold increase”. The compound further yielded a Kd in data set [4] of 960 ± 70 nM. For the same compound, in data set [4] (setting [6]), the Δ absorbance maxima is on record as 0.058 AU.
As for `Clc1ccccc1C(c1ccccc1)(c1ccccc1)n1ccnc1` [Clotrimazole], the Kd in data set [4] is 3000 ± 400 nM. In addition, in data set [4] (setting [6]), the Δ absorbance maxima is on record as 0.053 AU.
`CCCCCCCC/C=C\CCCCCCCC(=O)O` [Oleic acid] registered a Kd in data set [4] of 370 ± 70 nM. The Δ absorbance maxima in data set [4] (setting [6]) stood at 0.099 AU.
Take `Clc1ccc(COC(Cn2ccnc2)c2ccc(Cl)cc2Cl)c(Cl)c1` (stereo not shown) [Miconazole]: binding in data set [4] was characterised by a dissociation constant (Kd) of 880 ± 180 nM. In data set [4] (setting [6]), the Δ absorbance maxima came out at 0.036 AU.
For `CCCCCCCCCCCCCCCCCC(=O)O` [Stearic acid], in that order: 330 ± 70 nM and 0.078 AU.
In data set [4], `CCCCCCCCCC(=O)O` [Decanoic acid] had a Kd of 21000 ± 4000 nM. Besides, in data set [4] (setting [6]), the Δ absorbance maxima was found to be 0.016 AU.
For `CC(C)CCC[C@@H](C)[C@H]1CC[C@H]2[C@@H]3CC=C4C[C@@H](O)CC[C@]4(C)[C@H]3CC[C@]12C` [cholesterol], in data set [4] (UV-visible titration of CYP168A1), the “Spectral shift of the Soret band (difference spectrum type)” value is “no spectral changes; also recorded: did not exert any changes”.
The term Km denotes the concentration of substrate that gives half-maximal velocity. Consider `CCCCCCCCCCCC(=O)O` [Lauric acid], for which, in data set [5] (LC-MS analysis, spinach redox partners and NADPH), the “proportion of lauric acid metabolized to the ω-hydroxyl derivative” value was less than 5%. In data set [5] (lauric acid ω-1-hydroxylation, Hill fit), the “n, cooperativity value for the substrate binding” value amounted to 1.5. Also, in data set [5] (setting [7]), the “S50 ± SE” value was 34 ± 2 µM and the “Vmax ± SE” value is listed as 0.12 ± 0.004 nmol/min/nmol P450. Moreover, the “Vmax ± SE” value in data set [5] (lauric acid ω-1-hydroxylation, Michaelis-Menten fit) was determined as 0.14 ± 0.006 nmol/min/nmol P450. Moreover, the Michaelis-Menten constant (Km) in data set [5] (read-out: Km ± SE, lauric acid ω-1-hydroxylation to 11-hydroxylauric acid, Michaelis-Menten fit) is 46 ± 5 µM. Moreover, in data set [4] (setting [6]), the Δ absorbance maxima stood at 0.013 AU. Further, the Kd in data set [4] (read-out: Kd ± SE, 1 μM CYP168A1, 100 mM potassium phosphate pH 7.4, one binding site model, ND = no spectral shift detected) amounted to 1900 ± 300 nM.
In data set [4], `CCCCCCCCCCCCCC(=O)O` [Myristic acid] registered a dissociation constant (Kd) of 830 ± 150 nM. Further, the Δ absorbance maxima in data set [4] (setting [6]) is listed as 0.048 AU.
In the same order, the values of `CCCCCCCCCCCCCCCC(=O)O` [Palmitic acid] are 210 ± 40 nM and 0.064 AU.
In data set [4], `Clc1ccc(COC(Cn2ccnc2)c2ccc(Cl)cc2Cl)cc1` (stereo not shown) [Econazole] returned a Kd of 2500 ± 400 nM. The Δ absorbance maxima in data set [4] (setting [6]) is on record as 0.026 AU.
